Assay results as given in patent US20240182470A1, “KRASG12C MUTANT PROTEIN INHIBITOR, PREARATION AND USE THEREOF” (YA THERAPEUTICS INC, priority 2021, published 2024).

Tested on: H358 (KRAS G12C mutant) cells
Assay: Tumor cell proliferation inhibition assay (Cell Titer-Glo, 72 h)
Format: cell-based
Conditions: inhibition of tumor cell proliferation, 72 hours with compound, 10% fetal bovine serum; read-out: NCI-H538 IC50(nm)
Procedure: The H358 (KRAS G^12C mutant) cells were digested, centrifuged and resuspended, and the cell density was measured with a Scepter automatic cell counter. The cells were diluted to a solution containing 44,000 cells per milliliter, and the density-adjusted cell solution was 90 microliters per well. into a 96-well culture plate. The 96-well plate was placed in a 37° C., 5% CO2 incubator. After the cells were cultured for 24 hours, different concentrations of the compounds to be tested were added. The cells were incubated with the compounds for 72 hours in the presence of 10% fetal bovine serum. Glo Luminescent Cell Viability Assay Kit (see manufacturer's instructions for details) was used to measure ATP content to assess cell growth inhibition. Briefly, 30 μl of Cell Titer-Glo reagent was added to each well, and the plate was shaken for 10 minutes to induce cell lysis. Fluoroskan
Ascent FL (Thermo) assay was used to record the fluorescent signal, and the maximum signal value was obtained from cells treated with dimethyl sulfoxide for 72 hours. The minimum signal value was obtained from the medium alone (the number of cells was zero), and the % inhibition rate=(the maximum signal value compound signal value)/(the maximum signal value—the minimum signal value×100%, and the data were processed using Graphpadprism 5 software. By sigmoid Dose-response curve fitting to calculate the IC50 value. “A” means IC50≤50 nM; “B” means 50<IC50≤500 nM; “C” means 500<IC50≤2000 nM; “D” means 2000 nM<IC50

| SMILES | IC50 |
| --- | --- |
| C=C(F)C(=O)N1C2CCC1CN(c1nc(OC[C@@]34CCCN3C[C@H](F)C4)nc3c(F)c(-c4cc(O)cc5cccc(F)c45)c(Cl)cc13)C2 [Compound 42, 6-Chloro-74(3-hydroxy-8-fluoronaphthyl)-8-fluoro-4-(8-(2-fluoroacryloyl)-3,8-diazabicyclo[3.2.1]octane-3-yl)-2-(((2R,7aS)-2-fluorotetrahydro-1H-pyrincycline-7a(5H)-yl)methoxy)quinazoline] | ≤ 50 nM |
| C=C(F)C(=O)N1CCN(c2nc(OCC34CCCN3CCC4)nc3c(F)c(-c4cccc5cccc(F)c45)ccc23)C[C@@H]1CC#N [Compound 58, 7-(8-fluoronaphthyl)-8-fluoro-4-(((S)-4-(2-fluoroacryloyl)-3-carbonitrileethylpiperazine)-1-yl)-2-((tetrakis Preparation of Hydro-1H-Pyrin-7a(5H)-yl)methoxy)quinazoline] | ≤ 50 nM |
| C=C(F)C(=O)N1CCN(c2nc(OC[C@@]34CCCN3CC(F)(F)C4)nc3nc(-c4cccc5cccc(F)c45)c(F)cc23)C[C@@H]1CC#N [Compound 83] | ≤ 50 nM |
| C=C(F)C(=O)N1CCN(c2nc(OC[C@@]34CCCN3CC(F)(F)C4)nc3nc(-c4cc(O)cc5cccc(F)c45)c(F)cc23)C[C@@H]1CC#N [Compound 84, 7-(3-Hydroxy-8-fluoronaphthyl)-6-fluoro-4-(((S)-4-(2-fluoroacryloyl)-3-carbonitrileethylpiperazine)-1-yl)-2-(((S)-2,2-difluorotetrahydro-1H-pyrinyl-7a(5H)-yl)methoxy)pyridine[2,3-d]lopyrimidine] | ≤ 50 nM |
| C=CC(=O)N1CCN(c2nc(OC[C@@]34CCCN3CC(F)(F)C4)nc3nc(-c4cccc5cccc(F)c45)ccc23)[C@H](C)C1 [Compound 86, 7-(8-Fluoronaphthyl)-4-(((R)-4-Acryloyl-2-methylpiperazine)-1-yl)-2-(((S)-2,2-difluorotetrakisHydro-1H-pyrincycl-7a(5H)-yl)methoxy)pyridine[2,3-d]lopyrimidine] | ≤ 50 nM |
| C=CC(=O)N1CCN(c2nc(OC[C@@]34CCCN3C[C@H](F)C4)nc3nc(-c4cccc5cccc(C)c45)ccc23)[C@H](C)C1 [Compound 89, 7-(8-Methylnaphthyl)-4-(((R)-4-Acryloyl-2-methylpiperazine)-1-yl)-2-(((2R,7aS)-2-fluorotetrahydro-1H-pyrincycl-7a(5H)-yl)methoxy)pyridine[2,3-d]lopyrimidine] | ≤ 50 nM |
| C=C(F)C(=O)N1CCN(c2nc(OC[C@@]34CCCN3CC(F)(F)C4)nc3nc(-c4cccc5cccc(F)c45)ccc23)C[C@@H]1CC#N [Compound 90, 7-(8-Fluoronaphthyl)-4-(((S)-4-(2-fluoroacryloyl)-3-carbonitrileethylpiperazine)-1-yl)-2-(((S)-2,2-difluorotetrahydro-1H-pyrincyclo-7a(5H)-yl)methoxy)pyridine[2,3-d]lopyrimidine] | ≤ 50 nM |
| C=C(F)C(=O)N1CCN(c2nc(OC[C@@]34CCCN3CC(F)(F)C4)nc3nc(-c4cc(O)cc5cccc(F)c45)ccc23)C[C@@H]1CC#N [Compound 91, 7-(3-Hydroxy-8-fluoronaphthyl)-4-(((S)-4-(2-fluoroacryloyl)-3-carbonitrileethylpiperazine)-1-yl)-2-(((S)-2,2-difluorotetrahydro-1H-pyrincycl-7a(5H)-yl)methoxy)pyridine[2,3-d]lopyrimidine] | ≤ 50 nM |
| C=C(F)C(=O)N1CCN(c2nc(OC[C@@]34CCCN3C[C@H](F)C4)nc3nc(-c4cccc5cccc(F)c45)ccc23)C[C@@H]1CC#N [Compound 92, 7-(8-Fluoronaphthyl)-4-(((S)-4-(2-fluoroacryloyl)-3-carbonitrileethylpiperazine)-1-yl)-2-(((2R,7aS)-2-fluorotetrahydro-1H-pyrincycl-7a(5H)-yl)methoxy)pyridine[2,3-d]lopyrimidine] | ≤ 50 nM |
| C=C(F)C(=O)N1CCN(c2nc(OC[C@@]34CCCN3C[C@H](F)C4)nc3nc(-c4cccc5cccc(C)c45)ccc23)C[C@@H]1CC#N [Compound 93] | ≤ 50 nM |

Next, values leading:

| IC50 | SMILES |
| --- | --- |
| ≤ 50 nM | C=C(F)C(=O)N1CCN(c2nc(OC[C@@]34CCCN3C[C@H](F)C4)nc3c(F)c(-c4cc(O)cc5cccc(F)c45)c(Cl)cc23)[C@H](C)C1 [Compound 44, 6-Chloro-74(3-hydroxy-8-fluoronaphthyl)-8-fluoro-4-(((R)-4-(2-fluoroacryloyl)-2-methylpiperazine)-1-yl)-2-(((2R,7aS)-2-fluorotetrahydro-1H-pyrincycline-7a(5H)-yl)methoxy)quinazoline] |
| ≤ 50 nM | C=CC(=O)N1CCN(c2nc(OC[C@@]34CCCN3C[C@H](F)C4)nc3c(F)c(-c4cc(O)cc5cccc(F)c45)c(Cl)cc23)[C@H](C)C1 [Compound 46, 6-Chloro-7-(3-hydroxy-8-fluoronaphthyl)-8-fluoro-4-(((R)-4-acryloyl-2-methylpiperazine)-1-yl)-2-(((2R,7aS)-2-fluorotetrahydro-1H-pyrinyl-7a(5H)-yl)methoxy)quinazoline] |
| ≤ 50 nM | C=CC(=O)N1CCN(c2nc(OC[C@@]34CCCN3C[C@H](F)C4)nc3c(F)c(-c4cccc5cccc(F)c45)ccc23)[C@H](C)C1 [Compound 47, 7-(8-Fluoronaphthyl)-8-fluoro-4-(((R)-4-acryloyl-2-methylpiperazine)-1-yl)-2-(((2R,7aS)-2-fluorotetrahydro-1H-pyrincyclo-7a(5H)-yl)methoxy)quinazoline] |
| ≤ 50 nM | C=CC(=O)N1CCN(c2nc(OC[C@@]34CCCN3C[C@H](F)C4)nc3c(F)c(-c4cc(O)cc5cccc(F)c45)ccc23)[C@H](C)C1 [Compound 48, 7-(3-Hydroxy-8-fluoronaphthyl)-8-fluoro-4-(((R)-4-acryloyl-2-methylpiperazine)-1-yl)-2-(((2R, 7aS)-2-fluorotetrahydro-1H-pyrincycline-7a(5H)-yl)methoxy)quinazoline] |
| ≤ 50 nM | C=CC(=O)N1CCN(c2nc(OCC34CCCN3CCC4)nc3c(F)c(-c4cc(O)cc5cccc(F)c45)ccc23)[C@H](C)C1 [Compound 49, 7-(3-Hydroxy-8-fluoronaphthyl)-8-fluoro-4-(((R)-4-acryloyl-2-methylpiperazine)-1-yl)-2-((tetrahydro-1H-pyrinyl-7a(5H)-yl)methoxy)quinazoline] |
| ≤ 50 nM | C=CC(=O)N1CCN(c2nc(OCC34CCCN3CCC4)nc3c(F)c(-c4cccc5cccc(F)c45)ccc23)[C@H](C)C1 [Compound 50, 7-(8-fluoronaphthyl)-8-fluoro-4-(((R)-4-acryloyl-2-methylpiperazine)-1-yl)-2-((tetrahydro-1H-pyrinecyclo-7a(5H)-yl)methoxy)quinazoline] |
| ≤ 50 nM | C=C(F)C(=O)N1CCN(c2nc(OC[C@@]34CCCN3C[C@H](F)C4)nc3c(F)c(-c4cc(O)cc5cccc(F)c45)ccc23)C[C@@H]1CC#N [Compound 52] |
| ≤ 50 nM | C=CC(=O)N1CCN(c2nc(OCC34CCCN3CCC4)nc3c(F)c(-c4cccc5cccc(F)c45)ccc23)C[C@@H]1CC#N [Compound 54, 7-(8-fluoronaphthyl)-8-fluoro-4-(((S)-4-(acryloyl)-3-carbonitrileethylpiperazine)-1-yl)-2-((tetrahydro-1H-pyrin-7a(5H)-yl)methoxy)quinazoline] |
| ≤ 50 nM | C=CC(=O)N1CCN(c2nc(OCC34CCCN3CCC4)nc3c(F)c(-c4cc(O)cc5cccc(F)c45)ccc23)C[C@@H]1CC#N [Compound 55] |
| ≤ 50 nM | C=C(F)C(=O)N1CCN(c2nc(OCC34CCCN3CCC4)nc3c(F)c(-c4cc(O)cc5cccc(F)c45)ccc23)C[C@@H]1CC#N [Compound 57] |
| ≤ 50 nM | C=CC(=O)N1CCN(c2nc(OC[C@@]34CCCN3CC(F)(F)C4)nc3c(F)c(-c4cc(O)cc5cccc(F)c45)ccc23)[C@H](C)C1 [Compound 60, 7-(3-Hydroxy-8-fluoronaphthyl)-8-fluoro-4-(((R)-4-acryloyl-2-methylpiperazine)-1-yl)-2-(((S)-2,2-difluorotetrahydro-1H-pyrinyl-7a(5H)-yl)methoxy)quinazoline] |
| ≤ 50 nM | C=CC(=O)N1CCN(c2nc(OC[C@@]34CCCN3CC(F)(F)C4)nc3c(F)c(-c4cccc5cccc(C)c45)ccc23)C[C@@H]1CC#N [Compound 67] |
| ≤ 50 nM | C=C(F)C(=O)N1CCN(c2nc(OC[C@@]34CCCN3CC(F)(F)C4)nc3c(F)c(-c4cccc5cccc(C)c45)ccc23)C[C@@H]1CC#N [Compound 68, 7-(8-Methylnaphthyl)-8-fluoro-4-(((S)-4-(2-fluoroacryloyl)-3-carbonitrileethylpiperazine)-1-yl)-2-(((S)-2,2-difluorotetrahydro-1H-pyrinyl-7a(5H)-yl)methoxy)quinazoline] |
| ≤ 50 nM | C=C(F)C(=O)N1CCN(c2nc(OC[C@@]34CCCN3CC(F)(F)C4)nc3c(F)c(-c4cccc5cccc(F)c45)c(Cl)cc23)C[C@@H]1CC#N [Compound 78, 6-Chloro-7-(8-fluoronaphthyl)-8-fluoro-4-(((S)-4-(2-fluoroacryloyl)-3-carbonitrileethylpiperazine)-1-yl)-2-(((S)-2,2-difluorotetrahydro-1H-pyrincycline-7a(5H)-yl)methoxy)quinazoline] |
